Reference: ChEMBL document CHEMBL3808342, “Discovery and optimization of a novel series of highly CNS penetrant M4 PAMs based on a 5,6-dimethyl-4-(piperidin-1-yl)thieno[2,3-d]pyrimidine core” (Bioorg Med Chem Lett, 2016)
Calls of active or inactive are those of the source. The calls are words filed in the database; no cut-off is given here.

How the values were obtained:
[1] = Fraction unbound in human plasma; type: ADME, cell-free
[2] = Fraction unbound in rat plasma; type: ADME, cell-free
Cytochrome P450 3A4 = Cytochrome P450 3A4 (Homo sapiens, UniProt P08684); assay: Inhibition of CYP3A4 (unknown origin); type: ADME
Cytochrome P450 1A2 = molecular target: T1, Cytochrome P450 1A2 (Homo sapiens, UniProt P05177); assay: Inhibition of CYP1A2 (unknown origin); type: ADME
T1 sequence (P05177 whole entry): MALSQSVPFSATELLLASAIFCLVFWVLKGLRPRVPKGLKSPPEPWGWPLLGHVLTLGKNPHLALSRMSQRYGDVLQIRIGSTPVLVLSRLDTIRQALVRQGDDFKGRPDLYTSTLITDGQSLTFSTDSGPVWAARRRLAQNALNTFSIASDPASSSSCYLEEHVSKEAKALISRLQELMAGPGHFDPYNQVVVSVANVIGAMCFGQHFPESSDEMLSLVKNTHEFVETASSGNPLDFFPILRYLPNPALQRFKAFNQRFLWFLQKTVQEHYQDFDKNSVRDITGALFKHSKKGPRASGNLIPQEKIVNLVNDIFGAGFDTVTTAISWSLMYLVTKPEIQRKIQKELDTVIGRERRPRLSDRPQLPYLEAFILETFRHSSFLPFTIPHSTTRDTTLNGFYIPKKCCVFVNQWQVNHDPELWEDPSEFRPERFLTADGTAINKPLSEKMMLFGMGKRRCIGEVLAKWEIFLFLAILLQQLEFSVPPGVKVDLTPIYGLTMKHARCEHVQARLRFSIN

Cytochrome P450 2D6 = Cytochrome P450 2D6 (Homo sapiens, UniProt P10635); assay: Inhibition of CYP2D6 (unknown origin); type: ADME
Cytochrome P450 2C9 = Cytochrome P450 2C9 (Homo sapiens, UniProt P11712); assay: Inhibition of CYP2C9 (unknown origin); type: ADME
[3] = molecular target: T2, Muscarinic acetylcholine receptor M5 (Homo sapiens) (UniProt P08912); assay: Positive allosteric modulation of human M5 receptor expressed in CHOK1 cells by calcium mobilization assay; type: functional, cell-based; conditions: CHO-K1
T2 sequence (whole entry): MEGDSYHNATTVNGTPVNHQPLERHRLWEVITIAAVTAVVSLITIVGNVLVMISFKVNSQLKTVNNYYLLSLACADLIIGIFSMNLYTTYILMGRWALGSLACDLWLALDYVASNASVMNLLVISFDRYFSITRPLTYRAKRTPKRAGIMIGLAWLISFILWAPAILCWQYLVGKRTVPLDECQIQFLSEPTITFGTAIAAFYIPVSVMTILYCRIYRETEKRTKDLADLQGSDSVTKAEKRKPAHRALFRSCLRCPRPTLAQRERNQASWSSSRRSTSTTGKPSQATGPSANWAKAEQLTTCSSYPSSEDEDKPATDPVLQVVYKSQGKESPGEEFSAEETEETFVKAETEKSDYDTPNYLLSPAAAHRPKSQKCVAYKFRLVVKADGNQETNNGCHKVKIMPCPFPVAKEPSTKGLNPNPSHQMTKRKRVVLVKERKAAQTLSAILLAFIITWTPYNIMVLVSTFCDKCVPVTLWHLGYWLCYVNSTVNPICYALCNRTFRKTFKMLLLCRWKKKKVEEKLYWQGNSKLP

[4] = molecular target: T3, Muscarinic acetylcholine receptor M4 (Homo sapiens) (UniProt P08173); assay: Positive allosteric modulation of human M4 receptor expressed in CHO cells coexpressing Gqi5 by calcium mobilization assay relative to acetylcholine; type: functional, cell-based
T3 sequence (whole entry): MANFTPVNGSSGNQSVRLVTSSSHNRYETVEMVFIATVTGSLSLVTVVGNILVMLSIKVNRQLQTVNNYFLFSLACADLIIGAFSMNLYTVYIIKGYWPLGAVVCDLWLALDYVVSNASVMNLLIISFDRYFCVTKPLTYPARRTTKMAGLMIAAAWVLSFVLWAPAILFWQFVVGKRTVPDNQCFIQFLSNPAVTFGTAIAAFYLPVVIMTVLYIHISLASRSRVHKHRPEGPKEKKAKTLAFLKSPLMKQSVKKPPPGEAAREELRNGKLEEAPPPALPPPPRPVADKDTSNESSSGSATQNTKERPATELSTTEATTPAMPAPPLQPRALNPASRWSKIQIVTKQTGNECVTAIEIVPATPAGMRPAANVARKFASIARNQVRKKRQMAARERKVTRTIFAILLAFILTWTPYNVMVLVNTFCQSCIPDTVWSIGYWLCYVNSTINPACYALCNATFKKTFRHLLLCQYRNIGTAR

[5] = molecular target: T4, Muscarinic acetylcholine receptor M4 (Homo sapiens, UniProt P08173); assay: Positive allosteric modulation of human M4 receptor expressed in CHO cells coexpressing Gqi5 by calcium mobilization assay; type: functional, cell-based
T4 sequence (P08173 whole entry): T3 sequence (whole entry)

[6] = molecular target: T5, Muscarinic acetylcholine receptor M4 (Rattus norvegicus) (UniProt P08485); assay: Positive allosteric modulation of rat M4 receptor expressed in CHO cells coexpressing Gqi5 by calcium mobilization assay relative to acetylcholine; type: functional, cell-based
T5 sequence (whole entry): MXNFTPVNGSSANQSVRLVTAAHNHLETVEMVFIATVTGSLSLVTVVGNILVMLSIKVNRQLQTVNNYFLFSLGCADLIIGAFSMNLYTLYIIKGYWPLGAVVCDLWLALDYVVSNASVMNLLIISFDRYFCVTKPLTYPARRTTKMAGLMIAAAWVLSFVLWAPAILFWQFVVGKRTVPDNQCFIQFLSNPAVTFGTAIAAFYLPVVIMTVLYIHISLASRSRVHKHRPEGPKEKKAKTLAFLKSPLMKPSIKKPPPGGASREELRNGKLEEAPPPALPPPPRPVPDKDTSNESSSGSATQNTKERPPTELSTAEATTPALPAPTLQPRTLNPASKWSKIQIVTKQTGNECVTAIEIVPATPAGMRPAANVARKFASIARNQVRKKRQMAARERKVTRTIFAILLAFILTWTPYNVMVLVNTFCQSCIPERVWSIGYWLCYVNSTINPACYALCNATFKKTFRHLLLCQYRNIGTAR

[7] = molecular target: T6, Muscarinic acetylcholine receptor M4 (Rattus norvegicus, UniProt P08485); assay: Positive allosteric modulation of rat M4 receptor expressed in CHO cells coexpressing Gqi5 by calcium mobilization assay; type: functional, cell-based
T6 sequence (P08485 whole entry): T5 sequence (whole entry)

Chain of Cytochrome P450 2C9 (P11712 whole entry): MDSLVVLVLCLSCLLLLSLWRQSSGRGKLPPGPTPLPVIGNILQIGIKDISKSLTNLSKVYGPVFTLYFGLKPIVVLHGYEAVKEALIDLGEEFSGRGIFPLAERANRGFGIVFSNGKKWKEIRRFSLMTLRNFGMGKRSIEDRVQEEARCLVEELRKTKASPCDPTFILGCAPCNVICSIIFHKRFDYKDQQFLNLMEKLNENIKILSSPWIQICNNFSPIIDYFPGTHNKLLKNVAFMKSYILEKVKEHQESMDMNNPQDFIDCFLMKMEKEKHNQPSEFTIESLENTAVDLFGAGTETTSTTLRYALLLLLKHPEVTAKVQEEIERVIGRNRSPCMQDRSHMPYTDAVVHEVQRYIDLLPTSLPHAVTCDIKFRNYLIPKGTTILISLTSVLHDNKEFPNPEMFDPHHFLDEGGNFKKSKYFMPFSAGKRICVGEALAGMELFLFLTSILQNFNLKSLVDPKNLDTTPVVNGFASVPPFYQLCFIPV
Chain of Cytochrome P450 3A4 (P08684 whole entry): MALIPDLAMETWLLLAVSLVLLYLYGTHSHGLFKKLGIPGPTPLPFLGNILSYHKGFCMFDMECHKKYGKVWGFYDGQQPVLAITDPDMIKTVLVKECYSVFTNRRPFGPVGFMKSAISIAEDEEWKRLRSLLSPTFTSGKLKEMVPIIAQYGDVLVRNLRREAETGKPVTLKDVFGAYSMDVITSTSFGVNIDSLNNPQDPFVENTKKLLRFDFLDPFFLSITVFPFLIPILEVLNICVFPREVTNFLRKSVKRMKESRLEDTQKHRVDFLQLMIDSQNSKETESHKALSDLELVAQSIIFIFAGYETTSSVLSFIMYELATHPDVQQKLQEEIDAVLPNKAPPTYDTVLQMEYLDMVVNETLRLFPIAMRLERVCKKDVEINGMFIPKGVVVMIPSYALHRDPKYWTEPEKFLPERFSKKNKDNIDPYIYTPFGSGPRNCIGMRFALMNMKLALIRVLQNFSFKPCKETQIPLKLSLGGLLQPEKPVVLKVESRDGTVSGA
Chain of Cytochrome P450 2D6 (P10635 whole entry): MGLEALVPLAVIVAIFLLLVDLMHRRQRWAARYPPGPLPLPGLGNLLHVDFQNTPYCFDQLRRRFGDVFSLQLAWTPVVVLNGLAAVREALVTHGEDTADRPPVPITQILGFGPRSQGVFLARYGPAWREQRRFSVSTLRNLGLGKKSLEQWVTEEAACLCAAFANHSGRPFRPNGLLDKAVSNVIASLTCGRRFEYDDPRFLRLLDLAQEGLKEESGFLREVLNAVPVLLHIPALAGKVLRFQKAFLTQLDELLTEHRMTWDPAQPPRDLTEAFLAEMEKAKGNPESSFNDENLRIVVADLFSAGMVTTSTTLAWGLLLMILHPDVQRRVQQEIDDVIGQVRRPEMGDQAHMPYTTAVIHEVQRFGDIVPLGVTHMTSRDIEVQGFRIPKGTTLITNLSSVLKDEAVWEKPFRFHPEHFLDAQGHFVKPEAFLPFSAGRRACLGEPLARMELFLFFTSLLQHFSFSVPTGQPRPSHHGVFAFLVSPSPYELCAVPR

fraction unbound [1]: 0.002
fraction unbound [2]: 0.01
IC50 (Cytochrome P450 3A4): > 20 µM
IC50 (Cytochrome P450 1A2): > 20 µM
IC50 (Cytochrome P450 2D6): 3.4 µM
IC50 (Cytochrome P450 2C9): 5.8 µM
Activity [3]: inactive
%max [4]: 76%
EC50 ([5]; read-out: EC50): 0.41 µM
EC50 ([5]; read-out: pEC50 (converted)): 1.2 µM
%max [6]: 71%
EC50 [7]: 0.16 µM
Structure (SMILES): Cc1sc2ncnc(N3CCC(C(=O)Nc4ccc(S(N)(=O)=O)cc4)CC3)c2c1C
